Activity calls are given as the source filed them.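 Rule for the calls: active = IC50 for lowering Her2 protein in breast cancer cells at or below a set limit; inactive = IC50 above that limit.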
What follows are compounds tested on SKBr3 Her2 cytoblot, chemiluminescence, 24 h (assay: Her2 protein loss in SKBr3 cells, dose response, mechanism study for Hsp90 inhibitor project, cell-based, cytoblot, chemiluminescence (AID 754)). Details: top dose 10 µM.

Compound	IC50
Nc1cc2c(c(O)c1O)C(=O)c1ccccc1C2=O	> 10 µM (inactive)
Nc1cc(O)cc2cccnc12	< 0.625 µM
CCN(CC)CCCNc1cc(OC)c(Nc2ccccc2)c2cccnc12	> 10 µM (inactive)
NCCCCCNc1cc(O)cc2cccnc12	> 10 µM (inactive)
CC(CCN(C)C)Nc1cc(O)cc2cccnc12 (stereo not given)	> 10 µM (inactive)
CCC(C)NCCNc1cc(OC)cc2cccnc12 (stereo not given)	> 10 µM (inactive)
Nc1cc(N)c2cccnc2c1O	> 10 µM (inactive)
Nc1cc2ccccc2c(O)c1O	> 10 µM (inactive)
O=[N+]([O-])c1cc(O)cc2cccnc12	> 10 µM (inactive)
CCN(CC)CCCC(C)Nc1cc(O)cc2cccnc12 (stereo not given)	> 10 µM (inactive)
CC(C)NCCCC(C)Nc1cc(O)cc2cccnc12 (stereo not given)	> 10 µM (inactive)
Nc1ccc(O)c2ncccc12	> 10 µM (inactive)
CC(C)NCCCCCNc1cc(O)cc2cccnc12	> 10 µM (inactive)

Same assay, conditions: top dose 30 µM

Compound	IC50
COc1cccc2c1C(=O)c1c(O)c3c(c(O)c1C2=O)C[C@@](O)(C(=O)CO)C[C@@H]3O[C@H]1C[C@H](N)[C@H](O)[C@H](C)O1	> 30 µM (inactive)
N#Cc1c(N2CCCC2)nc(N)c2c(N)nc(N3CCCC3)cc12	> 30 µM (inactive)
Cn1ncnc2c(=O)n(C)c(=O)nc1-2	< 1.88 µM
CC(Cc1ccc(O)c(O)c1)C(C)Cc1ccc(O)c(O)c1 (stereo not given)	> 30 µM (inactive)
C[C@H]1CCCC(=O)CCCCCc2cc(O)cc(O)c2C(=O)O1	> 30 µM (inactive)
O=C1c2ccccc2-c2onc3ccc(NCCCn4ccnc4)c1c23	> 30 µM (inactive)
CCn1c(CSc2nnc3ccccn23)nc2cc(C(=O)O)ccc21	> 30 µM (inactive)
COc1cccc2c1C(=O)c1c(O)c3c(c(O)c1C2=O)C[C@@](O)(C(C)=O)C[C@@H]3O[C@H]1C[C@H](N)[C@H](O)[C@H](C)O1	29.3 µM
CCn1nc(-c2cccs2)nc2c(=O)n(C)c(=O)nc1-2	< 1.88 µM
CCn1nc(-c2ccccc2)nc2c(=O)n(C)c(=O)nc1-2	2.73 µM
Oc1ccc(-c2nc(-c3ccc(O)c(O)c3)cs2)cc1	> 30 µM (inactive)
CCc1cc(-c2[nH]ncc2-c2ccc3c(c2)OCO3)c(O)cc1O	> 30 µM (inactive)
Cc1c(-c2nn(C)c(=O)c3ccccc23)oc2ccc(F)cc2c1=O	> 30 µM (inactive)
C[C@H]1CCC[C@H](O)CCCCCc2cc(O)cc(O)c2C(=O)O1	27.9 µM
CCn1c(CSc2nnc(-c3cccnc3)n2-c2ccccc2C)nc2cc(C(=O)O)ccc21	3.14 µM

Same assay, conditions: top dose 50 µM

Compound	IC50
COc1cc(NS(=O)(=O)c2ccc([N+](=O)[O-])cc2[N+](=O)[O-])c2ncccc2c1	> 50 µM (inactive)
COc1ccc(Oc2c(OC)cc(NCCCCCNC(C)C)c3ncccc23)cc1	> 50 µM (inactive)
Nc1ccc(Nc2nc3ccccc3s2)c(O)c1	> 50 µM (inactive)
COc1cc(NCC(O)CN(CC(C)C)CC(C)C)c2nc(C)ccc2c1 (stereo not given)	> 50 µM (inactive)
CCN(CC)CC(O)c1ccnc2c(O)cccc12 (stereo not given)	> 50 µM (inactive)
COc1cc(NCCCC(C)N)c2nccc(Cl)c2c1 (stereo not given)	> 50 µM (inactive)
O=[N+]([O-])c1cc(S(=O)(=O)Nc2ccc(F)c(-c3c(O)ccc4c3OCO4)c2)ccc1Cl	> 50 µM (inactive)
CCC(CC)NCCCNc1cc(OC)cc2cccnc12	> 50 µM (inactive)
COc1cc(NCCCN(CC(C)C)CC(C)C)c2ncccc2c1Cl	> 50 µM (inactive)
Cc1ccc(S(=O)(=O)Nc2ccc(F)c(-c3c(O)ccc4c3OCO4)c2)cc1	> 50 µM (inactive)
CCN(CC)CCCNc1cc(OC)cc2ccc(OC)nc12	> 50 µM (inactive)
COc1cc(NC(C)CCCN)c2ncccc2c1 (stereo not given)	> 50 µM (inactive)
COc1cc(NC(C)CCCNC(C)C)c2ncccc2c1OC (stereo not given)	> 50 µM (inactive)
Cc1[nH]c2c(N)cccc2c1C	> 50 µM (inactive)
COc1cc(NCCCCN)c2ncccc2c1	> 50 µM (inactive)
COc1cc(NC(C)CCCNC(C)C)c2ncccc2c1 (stereo not given)	> 50 µM (inactive)
COc1cc(NCCN(CC(C)C)CC(C)C)c2ncccc2c1	> 50 µM (inactive)
CCCC(C)N(CC)CCNc1cc(OC)cc2cccnc12 (stereo not given)	> 50 µM (inactive)
N#Cc1cc(S(=O)(=O)Nc2ccc(F)c(-c3c(O)ccc4c3OCO4)c2)ccc1F	> 50 µM (inactive)
Nc1cccc2cc(O)ccc12	> 50 µM (inactive)
COc1cc(N)c2ncccc2c1	> 50 µM (inactive)
Nc1ccc(O)c2ncccc12	> 50 µM (inactive)

Same assay, conditions: top dose 60 µM

Compound	IC50
CC(C)(C)OC(=O)Nc1cccc(NS(=O)(=O)c2cc(Cl)ccc2Cl)c1-c1ccccc1O	48.2 µM (inactive)
Nc1ccc(NS(=O)(=O)c2ccccc2)c(O)c1	> 60 µM (inactive)
COc1ccc(NS(=O)(=O)c2ccccc2)c(OC)c1	> 60 µM (inactive)
Nc1ccc(NS(=O)(=O)c2ccccc2[N+](=O)[O-])cc1-c1ccccc1O	> 60 µM (inactive)
Nc1cccc(S(=O)(=O)Nc2ccc(N)c(-c3ccccc3O)c2)c1	> 60 µM (inactive)
O=[N+]([O-])c1cccc(S(=O)(=O)Nc2ccc(O)c(-c3ccccc3O)c2)c1	> 60 µM (inactive)
COc1ccc2c(c1-c1cc(NS(=O)(=O)c3cc(Cl)ccc3Cl)ccc1N)OCO2	> 60 µM (inactive)
CCOc1ccc2ccccc2c1-c1cc(NS(=O)(=O)c2ccc(C)cc2)ccc1N	> 60 µM (inactive)
Nc1cccc(S(=O)(=O)Nc2ccc(O)c(-c3ccccc3O)c2)c1	> 60 µM (inactive)
CCOc1ccc2ccccc2c1-c1cc(NS(=O)(=O)c2cc(Cl)ccc2Cl)ccc1N	> 60 µM (inactive)
NCc1cc(S(=O)(=O)Nc2cc(O)cc3cccnc23)ccc1F	16.1 µM
COc1ccc2c(c1-c1cc(NS(=O)(=O)c3ccc(C)cc3)ccc1N)OCO2	> 60 µM (inactive)
O=S(=O)(Nc1ccc(O)c(-c2ccccc2O)c1)c1cc(Cl)ccc1Cl	> 60 µM (inactive)
Cc1ccc(S(=O)(=O)Nc2ccc(N)c(-c3ccccc3O)c2)cc1	> 60 µM (inactive)
Nc1ccc(NS(=O)(=O)c2ccccc2N)cc1-c1ccccc1O	> 60 µM (inactive)
COc1ccc(S(=O)(=O)Nc2ccc(O)c(-c3ccccc3O)c2)cc1OC	> 60 µM (inactive)
O=S(=O)(Nc1ccc(Cl)cc1O)c1ccccc1	> 60 µM (inactive)
O=S(=O)(Nc1cc(O)cc2cccnc12)c1ccc(F)cc1	> 60 µM (inactive)
Cc1ccc(S(=O)(=O)Nc2ccc(O)c(-c3ccccc3O)c2)cc1	> 60 µM (inactive)
O=[N+]([O-])c1ccc(NS(=O)(=O)c2ccccc2)c(O)c1	> 60 µM (inactive)
COc1ccc(S(=O)(=O)Nc2ccc(N)c(-c3ccccc3O)c2)cc1OC	> 60 µM (inactive)
N#Cc1cc(S(=O)(=O)Nc2cc(O)cc3cccnc23)ccc1F	33.8 µM (inactive)
Nc1ccc(NS(=O)(=O)c2cccc([N+](=O)[O-])c2)cc1-c1ccccc1O	> 60 µM (inactive)
CCOc1ccc2ccccc2c1-c1cc(NS(=O)(=O)c2ccc(OC)c(OC)c2)ccc1N	> 60 µM (inactive)
COc1cc(C2CC(c3ccccc3O)=NN2)ccc1O (stereo not given)	51 µM (inactive)
CCOc1ccc2ccccc2c1-c1cc(NS(=O)(=O)c2cc(Cl)ccc2Cl)ccc1NC(=O)OC(C)(C)C	> 60 µM (inactive)
COc1ccc(C2CC(c3ccccc3O)=NN2)cc1OC (stereo not given)	52.3 µM (inactive)
COc1ccc2c(c1-c1cc(NS(=O)(=O)c3cccc([N+](=O)[O-])c3)ccc1N)OCO2	> 60 µM (inactive)
Nc1ccc(NS(=O)(=O)c2cc(Cl)ccc2Cl)cc1-c1ccccc1O	> 60 µM (inactive)
COc1ccc2c(c1-c1cc(NS(=O)(=O)c3cccc(N)c3)ccc1N)OCO2	> 60 µM (inactive)
